Data published in PubChem BioAssay (NCI).
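Method: 48-hour compound exposure of cells in 96-well plates, five concentrations, linear interpolation of endpoints. GI50 = concentration required for 50% inhibition of growth. TGI marks complete inhibition of growth.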

Key:
Assay in all cases: NCI tumour cell line growth inhibition, 48 h
ACHN renal = system: ACHN renal
CAKI-1 renal = system: CAKI-1 renal
EKVX NSCLC = system: EKVX NSCLC
NCI-H522 lung = system: NCI-H522 lung
SK-MEL-28 melanoma = system: SK-MEL-28 melanoma
SNB-19 CNS = system: SNB-19 CNS
SR leukemia = system: SR leukemia
HCT-116 colon = system: HCT-116 colon
HCT-15 colon = system: HCT-15 colon
MCF7 breast = system: MCF7 breast

| SMILES | TGI (ACHN renal) | TGI (CAKI-1 renal) | TGI (EKVX NSCLC) | TGI (NCI-H522 lung) | TGI (SK-MEL-28 melanoma) | TGI (SNB-19 CNS) | TGI (SR leukemia) | TGI (HCT-116 colon) | TGI (HCT-15 colon) | GI50 (ACHN renal) | GI50 (CAKI-1 renal) | GI50 (EKVX NSCLC) | GI50 (HCT-116 colon) | GI50 (HCT-15 colon) | GI50 (MCF7 breast) | TGI (MCF7 breast) | GI50 (NCI-H522 lung) | GI50 (SK-MEL-28 melanoma) | GI50 (SNB-19 CNS) | GI50 (SR leukemia) |
| --- | --- | --- | --- | --- | --- | --- | --- | --- | --- | --- | --- | --- | --- | --- | --- | --- | --- | --- | --- | --- |
| N#Cc1cccc(C2SCc3nc4ccccc4n32)c1 (stereo not given) | > 100 µM | > 100 µM | > 100 µM | > 100 µM | > 100 µM | > 100 µM | > 100 µM |  |  |  |  |  |  |  |  |  |  |  |  |  |
| Cc1c(Cl)ccc2[s+]snc12 | > 100 µM | > 100 µM | > 100 µM | 41.5 µM | > 100 µM | > 100 µM | > 100 µM | 59 µM | > 100 µM |  |  |  |  |  |  |  |  |  |  |  |
| O=C1C(=C2C(=O)c3ccccc3[N+]2=O)N([O-])c2ccccc21 | 91.4 µM |  | 42.2 µM |  | > 100 µM | > 100 µM | 79.4 µM |  |  |  |  |  |  |  |  |  |  |  |  |  |
| C#CC[C@]12CC(=O)CC[C@H]1CC1(C2)OCCO1 | > 100 µM | > 100 µM |  | > 100 µM | > 100 µM | > 100 µM | > 100 µM | > 100 µM | > 100 µM |  |  |  |  |  |  |  |  |  |  |  |
| O=C(CC1(O)C(=O)Nc2ccc(Br)cc21)c1cccc([N+](=O)[O-])c1 (stereo not given) | > 100 µM | > 100 µM | > 100 µM | 67.2 µM | > 100 µM | > 100 µM |  |  | > 100 µM |  |  |  |  |  |  |  |  |  |  |  |
| O=C(c1ccccc1)N1CCc2c([nH]c3ccccc23)C1 | > 100 µM | 86.4 µM | > 100 µM | 64.8 µM | > 100 µM | > 100 µM | > 100 µM | > 100 µM | > 100 µM |  |  |  |  |  |  |  |  |  |  |  |
| CC1(C)OC2OC(/C=C/[N+](=O)[O-])C3OC(C)(C)OC3C2O1 (stereo not given) | 28.8 µM | 14.3 µM | 41.9 µM | 3.36 µM | 32.9 µM | 33.5 µM | 33.6 µM | 23 µM | 5.43 µM |  |  |  |  |  |  |  |  |  |  |  |
| COc1cc(CC2c3cc(OC)c(OC)cc3CCN2C)c(C(=O)O)cc1OC (stereo not given) | > 100 µM |  | > 100 µM | > 100 µM | > 100 µM | > 100 µM | > 100 µM | > 100 µM |  |  |  |  |  |  |  |  |  |  |  |  |
| Cc1cc(C)c(CNC(=O)c2cc(Cl)c3c(c2C)O[C@@](C)(C2CCC(N(C)C)CC2)O3)c(=O)[nH]1 (stereo not given in full) | > 100 µM | > 100 µM | > 100 µM | > 100 µM | > 100 µM | > 100 µM |  | > 100 µM | > 100 µM | > 100 µM | 93.1 µM | > 100 µM | 40.3 µM | > 100 µM | 49.5 µM | > 100 µM | > 100 µM | > 100 µM | > 100 µM |  |
| COC(=O)N1C=Cc2c(c(C)c3c([nH]c4ccccc43)c2C)C1C (stereo not given) |  | 34.5 µM | 32.1 µM |  | 31.1 µM | 35.6 µM |  | 25.6 µM | 26.4 µM |  |  |  |  |  |  |  |  |  |  |  |
| N#CC1(C2CC(=O)N(c3ccccc3)C2=O)CCCCC1=O (stereo not given) | > 100 µM |  | > 100 µM |  | > 100 µM | > 100 µM | > 100 µM |  | > 100 µM |  |  |  |  |  |  |  |  |  |  |  |
| Cc1cc2c(=O)cc(-c3ccncc3)oc2c(C(N)=O)c1C | > 100 µM |  | > 100 µM |  | > 100 µM | > 100 µM | > 100 µM | > 100 µM | > 100 µM |  |  |  |  |  |  |  |  |  |  |  |
| CC[C@H]1CNC(=O)CC1CC(=O)OC (stereo not given in full) | > 100 µM | > 100 µM | > 100 µM | > 100 µM | > 100 µM | > 100 µM | > 100 µM | > 100 µM | > 100 µM |  |  |  |  |  |  |  |  |  |  |  |
| O=C(Nc1cc(Cl)ccc1Cl)c1cc2ccccc2oc1=O | > 100 µM |  | > 100 µM | > 100 µM | > 100 µM |  |  | > 100 µM | > 100 µM |  |  |  |  |  |  |  |  |  |  |  |
| CC(=O)O[C@@H]1[C@H]2O[C@H]2[C@H]2O[C@@]2(COC(=O)c2ccccc2)[C@H]1OC(C)=O | > 100 µM | > 100 µM | > 100 µM | > 100 µM | > 100 µM | > 100 µM |  | > 100 µM | > 100 µM |  |  |  |  |  |  | > 100 µM |  |  |  |  |
| Nc1nc(-c2ccccn2)c(-c2ccc3ncccc3n2)s1 | > 25 µM | > 25 µM | > 25 µM | > 25 µM | > 25 µM | > 25 µM |  | > 25 µM | > 25 µM | > 25 µM | > 25 µM | > 25 µM | > 25 µM | > 25 µM | > 25 µM | > 25 µM | > 25 µM | > 25 µM | > 25 µM |  |
| O=C(/C=C/c1c[nH]c2ccccc12)c1ccccc1O | 25.2 µM |  | 33 µM | 23 µM | 47.6 µM | 36.7 µM |  | 26 µM | 21.7 µM |  |  |  |  |  |  | 18.7 µM |  |  |  |  |
| CCCCP1(=O)C=CC(Cl)=C(C)C1 (stereo not given) | > 100 µM |  | > 100 µM | > 100 µM | > 100 µM |  |  | > 100 µM | > 100 µM |  |  |  |  |  |  |  |  |  |  |  |
| OC1(c2ccccc2)c2ccccc2N(c2ccccc2)c2ccc(Cl)cc21 (stereo not given) | 1.37 µM | 0.779 µM | 1.25 µM | 0.433 µM | 0.434 µM | 1.45 µM |  | 0.602 µM | 1.86 µM | 0.367 µM | 0.257 µM | 0.286 µM | 0.234 µM | 0.424 µM | 0.299 µM | 0.894 µM | 0.161 µM | 0.193 µM | 0.378 µM |  |
| O=c1[nH]c(-c2ccncc2)nc2sc3c(c12)CCCCCC3 | > 100 µM | > 100 µM |  | > 100 µM | > 100 µM |  |  |  | > 100 µM | > 100 µM | > 100 µM |  |  | > 100 µM | > 100 µM | > 100 µM | > 100 µM | > 100 µM |  |  |
| Fc1cnccc1-c1nc2ccc3[nH]ncc3c2c2c1CCCC2 | > 100 µM |  | 13 µM | 8.76 µM |  | > 100 µM | 5.08 µM | 5.03 µM | > 100 µM | 0.466 µM |  | 0.442 µM | 0.489 µM | 0.844 µM | 1.93 µM | 12.1 µM | 1.31 µM |  | 2.89 µM | 0.519 µM |
